Assay [1] relates to Influenza A/TW/70066/09 (H1N1). As to the kind of experiment: microbe, parasite or virus in culture. Format: cell-based. Particulars: H1N1, read-out: EC50, viral plaque reduction assay. For orientation: Plaques are areas of infected cells; plaque reduction assays count them against a control.
For assay [2], the system named is Influenza A/TW/70058/09 (H1N1). Briefly: microbe, parasite or virus in culture. The format is cell-based. Particulars: H1N1, read-out: EC50, viral plaque reduction assay.

`Nc1c(S(=O)(=O)O)cc(Nc2cccc(S(=O)(=O)CCOS(=O)(=O)O)c2)c2c1C(=O)c1ccccc1C2=O` [RB19, Remazol Brilliant Blue R]: the EC50 (usually the midpoint of the concentration-response curve) in assay [1] was found to be 11.9 µM; in assay [2], 9.8 µM.

For the origin of these results see article PMC3577712 (PLoS ONE, 2013).
